Targets include GTPase NRas (Homo sapiens, UniProt P01111); GTPase NRas [G12C] (Homo sapiens, UniProt P01111, G12C); GTPase NRas [Q61K] (Homo sapiens, UniProt P01111, Q61K); GTPase NRas [Q61R] (Homo sapiens, UniProt P01111, Q61R).
Assay in all cases: Biochemical Assay
The target of another assay is GTPase KRas [Q61H] (Homo sapiens, UniProt P01116, Q61H). An excerpt: (§1) The purpose of this biochemical assay is to measure the ability of test compounds to covalently label nucleotide-loaded K-Ras isoforms. […] Analysis of raw data may be carried out using Waters MassLynx MS software, with % bound calculated from the deconvoluted protein peaks for labeled and unlabeled K-Ras.
Chain of GTPase KRas [Q61H] (P01116 whole entry Q61H, canonical isoform): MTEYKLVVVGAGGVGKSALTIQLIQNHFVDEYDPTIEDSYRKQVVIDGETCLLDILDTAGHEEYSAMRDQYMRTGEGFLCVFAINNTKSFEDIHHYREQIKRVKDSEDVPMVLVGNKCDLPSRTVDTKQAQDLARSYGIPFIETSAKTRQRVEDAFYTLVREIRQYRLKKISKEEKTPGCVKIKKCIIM

For a further assay, the target named is GTPase KRas [G12C] (Homo sapiens, UniProt P01116, G12C).
Chain of GTPase KRas [G12C] (P01116 whole entry G12C): as the sequence (P01116 whole entry Q61H, canonical isoform) above, with G12C, H61Q counted along it
Text: as §1

For a further assay, the target named is GTPase KRas (Homo sapiens, UniProt P01116).
Chain of GTPase KRas (P01116 whole entry): as the sequence (P01116 whole entry Q61H, canonical isoform) above, with H61Q counted along it
Text: as §1

Another assay concerns the target GTPase KRas [G12S] (Homo sapiens, UniProt P01116, G12S).
Text: as §1

In another assay the target is GTPase KRas [G13C] (Homo sapiens, UniProt P01116, G13C).
Chain of GTPase KRas [G13C] (P01116 whole entry G13C): as the sequence (P01116 whole entry Q61H, canonical isoform) above, with G13C, H61Q counted along it
Text: as §1

Another assay addresses GTPase KRas [G12V] (Homo sapiens, UniProt P01116, G12V).
Text: as §1

Another assay addresses GTPase KRas [G12D] (Homo sapiens, UniProt P01116, G12D).
Text: as §1

Chain of GTPase NRas [G12C] (P01111 whole entry G12C): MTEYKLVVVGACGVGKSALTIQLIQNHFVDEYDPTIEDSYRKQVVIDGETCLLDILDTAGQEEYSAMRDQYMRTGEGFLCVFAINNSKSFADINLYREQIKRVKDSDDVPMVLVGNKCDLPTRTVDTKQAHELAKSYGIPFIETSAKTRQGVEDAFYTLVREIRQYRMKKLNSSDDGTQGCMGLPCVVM
Chain of GTPase NRas [Q61R] (P01111 whole entry Q61R): as the sequence (P01111 whole entry G12C) above, with C12G, Q61R counted along it
Chain of GTPase NRas (P01111 whole entry): as the sequence (P01111 whole entry G12C) above, with C12G counted along it
Chain of GTPase NRas [Q61K] (P01111 whole entry Q61K): as the sequence (P01111 whole entry G12C) above, with C12G, Q61K counted along it
Chain of GTPase KRas [G12S] (P01116 whole entry G12S): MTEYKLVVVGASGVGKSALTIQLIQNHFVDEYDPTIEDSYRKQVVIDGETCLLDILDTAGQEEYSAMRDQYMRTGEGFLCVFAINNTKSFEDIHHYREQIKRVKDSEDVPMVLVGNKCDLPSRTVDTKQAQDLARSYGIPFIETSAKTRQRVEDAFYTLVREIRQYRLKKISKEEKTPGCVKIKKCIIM
Chain of GTPase KRas [G12D] (P01116 whole entry G12D): as the sequence (P01116 whole entry Q61H, canonical isoform) above, with G12D, H61Q counted along it
Chain of GTPase KRas [G12V] (P01116 whole entry G12V): as the sequence (P01116 whole entry Q61H, canonical isoform) above, with G12V, H61Q counted along it

In the case of `C=CC(=O)N1CC[C@H](C(=O)N(C)[C@H](C(=O)N[C@H]2Cc3cc(O)cc(c3)-c3ccc4c(c3)c(c(-c3nccnc3COC)n4CC)CC(C)(C)COC(=O)[C@@H]3CCCN(N3)C2=O)C(C)C)C1` [US11566007, Example A85], the IC50 against GTPase NRas was greater than 10000 nM.
Take `C=CC(=O)N1CC[C@H](C(=O)N(C)[C@H](C(=O)N[C@H]2Cc3cc(O)cc(c3)-c3ccc4c(c3)c(c(-c3cccnc3COC)n4CC)CC(C)(C)COC(=O)[C@@H]3CCCN(N3)C2=O)C(C)C)C1` [US11566007, Example A16]: the IC50 result at GTPase KRas [Q61H] was “in the range around 550 nM”; on GTPase KRas [G12C], “in the range around 55 nM”; against GTPase NRas [G12C], “in the range around 55 nM”.
Consider `C=CC(=O)N1CC[C@H](C(=O)N(C)[C@H](C(=O)N[C@H]2Cc3cc(O)cc(c3)-c3ccc4c(c3)c(c(-c3cncc(COC)c3)n4CC)CC(C)(C)COC(=O)[C@@H]3CCCN(N3)C2=O)C(C)C)C1` [US11566007, Example A83], for which the IC50 entry is “in the range around 55 nM” on GTPase KRas [G12C], “in the range around 5500 nM” against GTPase KRas and “in the range around 5500 nM” at GTPase NRas.
With `C=CC(=O)N1CC[C@H](C(=O)N(C)[C@H](C(=O)N[C@H]2Cc3cc(O)cc(c3)-c3cc(F)c4c(c3)c(c(-c3ccccc3CCOC)n4CC)CC(C)(C)COC(=O)[C@@H]3CCCN(N3)C2=O)C(C)C)C1` [US11566007, Example A53], the half-inhibitory concentration (IC50) result at GTPase KRas [G12C] was “in the range around 550 nM”; on GTPase NRas [Q61K] it was greater than 10000 nM.
Regarding `C=CC(=O)N1CC[C@H](C(=O)N(C)[C@H](C(=O)N[C@H]2Cc3cc(O)cc(c3)-c3ccc4c(c3)c(c(-c3cccnc3)n4CC)CC(C)(C)COC(=O)[C@@H]3CCCN(N3)C2=O)C(C)C)C1` [US11566007, Example A45], the results for the 50% inhibitory concentration (IC50) entry against GTPase NRas and against GTPase NRas [Q61R] were “in the range around 5500 nM” and greater than 10000 nM, respectively.
As to `C=CC(=O)N1CC[C@H](C(=O)N(C)[C@H](C(=O)N[C@H]2Cc3cc(O)cc(c3)-c3ccc4c(c3)c(c(-c3ccccc3[C@H](C)OC)n4CC)CC(C)(C)COC(=O)[C@@H]3CCCN(N3)C2=O)C(C)C)C1` [US11566007, Example A22], the IC50 entry was “in the range around 55 nM” against GTPase KRas [Q61H] and “in the range around 550 nM” at GTPase NRas.
As for `C=CC(=O)N1CC[C@H](C(=O)N(C)[C@H](C(=O)N[C@H]2Cc3cc(O)cc(c3)-c3ccc4c(c3)c(c(-c3c(F)cccc3CCOC)n4CC)CC(C)(C)COC(=O)[C@@H]3CCCN(N3)C2=O)C(C)C)C1` [US11566007, Example A25], the values for the IC50 entry at GTPase KRas [G12C], at GTPase NRas and against GTPase NRas [Q61R] were “in the range around 550 nM”, “in the range around 5500 nM” and greater than 10000 nM, respectively.
Take `C=CC(=O)N1CC[C@H](C(=O)N(C)[C@H](C(=O)N[C@H]2Cc3cc(O)cc(c3)-c3ccc4c(c3)c(c(-c3ccccc3)n4CC)CC(C)(C)COC(=O)[C@@H]3CCCN(N3)C2=O)C(C)C)C1` [US11566007, Example A23]: the values for the IC50 entry on GTPase KRas [G12C] and at GTPase NRas were “in the range around 550 nM” and greater than 10000 nM, respectively.
`C=CC(=O)N1CC[C@H](C(=O)N(C)[C@H](C(=O)N[C@H]2Cc3cc(O)cc(c3)-c3ccc4c(c3)c(c(-c3cnccc3C)n4CC)CC(C)(C)COC(=O)[C@@H]3CCCN(N3)C2=O)C(C)C)C1` [US11566007, Example A77]: on GTPase KRas, the half-maximal inhibitory concentration (IC50) entry was “in the range around 550 nM”.
Regarding `CCn1c(-c2cccnc2COC)c2c3cc(ccc31)-c1cc(O)cc(c1)C[C@H](NC(=O)[C@H](C(C)C)N(C)C(=O)[C@H]1CCN(C(=O)C#CCN(C)C)C1)C(=O)N1CCC[C@H](N1)C(=O)OCC(C)(C)C2` [US11566007, Example A96], the values for the IC50 against GTPase KRas [G12S], against GTPase KRas [G13C] and at GTPase NRas [G12C] were 100 to 1000 nM, less than 10 nM and less than 10 nM, respectively.
With `C=CC(=O)N1CC[C@H](C(=O)N(C)[C@H](C(=O)N[C@H]2Cc3cc(O)cc(c3)-c3ccc4c(c3)c(c(-c3ncccc3COC)n4CC)CC(C)(C)COC(=O)[C@@H]3CCCN(N3)C2=O)C(C)C)C1` [US11566007, Example A84], the IC50 at GTPase NRas [Q61K] is greater than 10000 nM.
Consider `C=CC(=O)N1CC[C@H](C(=O)N(C)[C@H](C(=O)N[C@H]2Cc3cc(O)cc(c3)-c3ccc4c(c3)c(c(-c3cc(F)cnc3COC)n4CC)CC(C)(C)COC(=O)[C@@H]3CCCN(N3)C2=O)C(C)C)C1` [US11566007, Example A82], for which the IC50 result at GTPase KRas [G12V] is “in the range around 550 nM”.
In the case of `CCn1c(-c2ccccc2CCOC)c2c3cc(ccc31)-c1cc(O)cc(c1)C[C@H](NC(=O)[C@H](C(C)C)N(C)C(=O)[C@H]1CCN(C(=O)C#CCN(C)C)C1)C(=O)N1CCC[C@H](N1)C(=O)OCC(C)(C)C2` [US11566007, Example A38], the IC50 against GTPase KRas [G12S] was 1000 to 10000 nM; against GTPase NRas [G12C], less than 10 nM.
Take `C=CC(=O)N1CC[C@H](C(=O)N(C)[C@H](C(=O)N[C@H]2Cc3cc(O)cc(c3)-c3ccc4c(c3)c(c(-c3ccccc3COC)n4CC)CC(C)(C)COC(=O)[C@@H]3CCCN(N3)C2=O)C2CCCC2)C1` [US11566007, Example A27]: the IC50 result on GTPase KRas [G12C] is “in the range around 55 nM”; on GTPase KRas, “in the range around 5500 nM”.
For `C=CC(=O)N1CC[C@H](C(=O)N(C)[C@H](C(=O)N[C@H]2Cc3cc(O)cc(c3)-c3ccc4c(c3)c(c(C3=C(COC)CCCC3)n4CC)CC(C)(C)COC(=O)[C@@H]3CCCN(N3)C2=O)C(C)C)C1` [US11566007, Example A64], the concentration for half-maximal inhibition (IC50) entry is “in the range around 5500 nM” on GTPase KRas [G13C], “in the range around 55 nM” against GTPase KRas [G12C] and “in the range around 5500 nM” at GTPase NRas [Q61R].
On to `C=CC(=O)N1CC[C@H](C(=O)N(C)[C@H](C(=O)N[C@H]2Cc3cc(O)cc(c3)-c3ccc4c(c3)c(c(-c3cncnc3)n4CC)CC(C)(C)COC(=O)[C@@H]3CCCN(N3)C2=O)C(C)C)C1` [US11566007, Example A61], for which the IC50 entry against GTPase KRas [G12C] is “in the range around 550 nM”; against GTPase NRas [Q61K], “in the range around 5500 nM”; against GTPase NRas [Q61R], greater than 10000 nM.
As for `C=CC(=O)N1CC[C@H](C(=O)N(C)[C@H](C(=O)N[C@H]2Cc3cc(O)cc(c3)-c3ccc4c(c3)c(c(-c3ccncc3)n4C(C)(C)C#N)CC(C)(C)COC(=O)[C@@H]3CCCN(N3)C2=O)C(C)C)C1` [US11566007, Example A86], the IC50 result is “in the range around 5500 nM” against GTPase KRas [G12D], “in the range around 550 nM” against GTPase KRas [Q61H] and “in the range around 55 nM” at GTPase KRas [G12C].

The values are drawn from BindingDB's records for patent US11566007 (Revolution Medicines, 2023).
